Like-named read-outs stand apart in the source and are kept apart here.

What is called IC50 is the concentration at which inhibition is half-maximal.

Assay [1] concerns immune cells in the spleens. Briefly: Flow cytometry analysis of immune cells in spleens after vaccination. Conditions: spleen, 7 days after vaccination. The format is in vivo, BALB/c mice. From the text: Encouraged by the excellent performance of Os2 in inducing ICD both in vitro and in vivo, we decided to further evaluate the antitumor immune response following vaccination. A key feature of ICD is its ability to initiate antigen‐specific adaptive immune responses. To assess this, we measured the immune cell response in the spleens and the cytokine levels in the serum of mice 7 days after vaccination (Figures 6A and S28).
The BALB/c female mice were randomly divided into 4 groups which were named as Control group, Cisplatin group, Ce6 group and Os2 group. CT26-luc cells were tre ated in vitro with 600 µM Cisplatin in the dark, 6.5 µ M Ce6 or 1.8 µM Os2 upon 740 nm LED light irradiation (60 min, 12.6 J cm-2) following the methods described above. […]
The BALB/c female mice were randomly divided into 4 groups with each group containing 3 mice, which were named as Control group, Cisplatin group, Ce6 group and Os2 group. […] For surfac e marker analysis, the cells were stained with fluorescence- l abeled anti-C D45-AF532 (Thermo Fisher Scientific Inc., Catalog no. 58- 0451- 80, clone 30-F 11 ), anti-CD3- […]
Serum samples were obt ained from the mice on day 7 after treatment. Cytokine was detected using ELISA kits according to the manufacturer ’s instructions: IFN-γ (Biolegend, Catalog no. 430807) and IL -17A ( Bi olegend, Catalog no.432507). […]
Background: Flow cytometry measures light scatter and fluorescence of single cells or particles in a stream.

Assay [2] has as its system human glioblastoma cells (U-87 MG). The assay is described as follows: Resazurin cell viability assay, (photo)cytotoxicity, normoxia. Conditions: for IC50: Homo sapiens. In kind it is cell-based. The protocol:
(100 U ml−1), streptomycin (100 U ml−1), and 1% L-glutamine. […]
All cells were incubated at 37 °C in a humidified atmosphere with 5 % CO2.
Normoxia. The in vitro viability of cells exposed to the complexes was determined using a resazurin assay. C ells were seeded in 96-well plates at densities of 4,000 cells/well for CT26, MC A205 and U-87 MG cells, and 8,000 cells/well for MRC-5 and NIH/3T3 cells. A fter 24 h of growth at 37 °C wit h 5% CO2, the medium was replaced with fresh medium containing various concentrations of the compounds . Following a 4- h incubation in the dark, the medium was refres hed , and the plates were exposed to irradiation usinga LUM OS -BIO photoreactor (At las Photonics).N on- ir rad iated plates were similarly refr eshed with medium and kept in the dark for the same duration. After a 40- h r ecov ery period, a f reshly pr epar ed resazurin solution (0.2 mg/mL) was added to each well, and the plates were left in the dark for 4 h before analysis on a B i o Te k Cytation 5 Cell Imaging Multimode Reader (Agil ent Technologies). […]
In general terms: Resazurin is reduced to fluorescent resorufin, in cell work by metabolically active cells.

On to `C=Cc1c(C)c2cc3nc(c(CC(=O)O)c4[nH]c(cc5nc(cc1[nH]2)C(C)=C5CC)c(C)c4C(=O)O)[C@@H](CCC(=O)O)[C@@H]3C` [Ce6, chlorin e6], for which, in assay [1], the “Activated CD8^+ T cells, times that of Control and Cisplatin groups” value is recorded as “around twice higher”. Also, the “Cytotoxic CD8^+ T cells, times higher than Control and Cisplatin groups” value in assay [1] is reported as “more than 10”. In addition, the PI in assay [2] (740 nm) amounted to 28; in assay [2] (770 nm) it was 8. For the same compound, the IC50 in assay [2] (dark, read-out: IC50 Dark) amounted to 116 ± 6.99 µM; in assay [2] (light or radiation study, 1 h, 740 nm, 1.12 mW/cm2, 60 min, 12.60 J/cm2, read-out: IC50 740 nm) it was 4.15 ± 0.06 µM; in assay [2] (light or radiation study, 2 h, 770 nm, 0.68 mW/cm2, 120 min, 15.30 J/cm2, read-out: IC50 770 nm), 14 ± 3.14 µM.

Values taken from article PMC13327620, “A Deep‐Red‐Absorbing Osmium(II) Complex as a Photosensitizer for Photodynamic Therapy Inducing Immunogenic Cell Death” (Angewandte Chemie (International Ed. in English), 2026).
